According to ChEMBL document CHEMBL1155440, “1-(5-carboxyindol-1-yl)propan-2-one inhibitors of human cytosolic phospholipase A(2)alpha with reduced lipophilicity: synthesis, biological activity, metabolic stability, solubility, bioavailability, and topical in vivo activity” (J Med Chem, 2010):
Calls of active or inactive are those of the source. The rule behind the calls is not given here.

Key:
Mus musculus [1] = assay: Antiinflammatory activity in BALB/c mouse assessed as inhibition of benzalkonium chloride-induced ear edema at 0.005 mg/ear administered topically after 10 mins of benzalkonium chloride challenge measured after 7 hrs of induction of dermatitis; assay type: functional
[2] = molecular target: T1, 85/88 kDa calcium-independent phospholipase A2 (Rattus norvegicus) (UniProt P97570); assay: Inhibition of Sprague-Dawley rat brain iPLA2 assessed as inhibition of substrate cleavage at 10 uM after 60 mins by HPLC analysis
T1 sequence (whole entry): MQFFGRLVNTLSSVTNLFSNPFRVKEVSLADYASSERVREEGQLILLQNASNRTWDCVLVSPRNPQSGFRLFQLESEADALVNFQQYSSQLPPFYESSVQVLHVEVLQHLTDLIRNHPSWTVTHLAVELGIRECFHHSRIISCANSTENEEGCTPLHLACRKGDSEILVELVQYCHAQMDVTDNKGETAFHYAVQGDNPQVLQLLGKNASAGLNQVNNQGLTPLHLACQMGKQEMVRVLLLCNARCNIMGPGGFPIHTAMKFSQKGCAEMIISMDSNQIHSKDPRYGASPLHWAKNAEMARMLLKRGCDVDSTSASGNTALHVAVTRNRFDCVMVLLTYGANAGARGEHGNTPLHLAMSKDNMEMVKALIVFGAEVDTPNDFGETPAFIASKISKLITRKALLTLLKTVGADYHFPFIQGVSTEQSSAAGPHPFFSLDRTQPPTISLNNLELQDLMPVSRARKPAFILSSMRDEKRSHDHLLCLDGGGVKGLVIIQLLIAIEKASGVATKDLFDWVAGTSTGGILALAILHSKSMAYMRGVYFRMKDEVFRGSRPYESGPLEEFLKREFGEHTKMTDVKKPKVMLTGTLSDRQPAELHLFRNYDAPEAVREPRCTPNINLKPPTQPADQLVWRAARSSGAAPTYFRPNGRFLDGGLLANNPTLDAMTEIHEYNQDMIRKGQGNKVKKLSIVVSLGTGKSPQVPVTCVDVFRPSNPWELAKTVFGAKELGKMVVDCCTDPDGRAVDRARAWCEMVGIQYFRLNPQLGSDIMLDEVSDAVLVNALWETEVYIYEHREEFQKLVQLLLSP

Mus musculus [3] = assay: Antiinflammatory activity in BALB/c mouse assessed as inhibition of benzalkonium chloride-induced ear edema at 0.01 mg/ear administered topically after 10 mins of benzalkonium chloride challenge measured after 5 to 7 hrs of induction of dermatitis; assay type: functional, organism-based
Mus musculus [4] = assay: Antiinflammatory activity in BALB/c mouse assessed as inhibition of benzalkonium chloride-induced ear edema at 0.1 to 1 mg/ear administered topically after 10 mins of benzalkonium chloride challenge measured after 5 hrs of induction of dermatitis; assay type: functional, organism-based
[5] = Inhibition of TPA-induced cPLA2alpha in human platelets assessed as inhibition of arachidonic acid production after 60 mins by UV-reverse phase HPLC analysis; conditions: 1 h
Mus musculus [6] = assay: Antiinflammatory activity in BALB/c mouse assessed as inhibition of benzalkonium chloride-induced ear edema at 0.1 to 1 mg/ear administered topically after 10 mins of benzalkonium chloride challenge measured after 7 hrs of induction of dermatitis; assay type: functional, organism-based
[7] = Partition coefficient, log P at 5 mM by reverse phase HPLC analysis; assay type: physicochemical; conditions: octanol/water
[8] = molecular target: Phospholipase A2, major isoenzyme (Sus scrofa) (UniProt P00592); assay: Inhibition of pig pancreas group 1B sPLA2 assessed as inhibition of POPG cleavage at 10 uM after 30 mins by HPLC analysis
Chain of Phospholipase A2, major isoenzyme (Sus scrofa) (P00592 23-146 limits assumed): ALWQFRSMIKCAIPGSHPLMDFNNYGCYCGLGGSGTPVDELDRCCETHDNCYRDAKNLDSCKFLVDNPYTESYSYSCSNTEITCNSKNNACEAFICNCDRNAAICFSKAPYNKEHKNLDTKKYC

Mus musculus [9] = assay: Antiinflammatory activity in topically dosed BALB/c mouse assessed as inhibition of benzalkonium chloride-induced ear edema administered after 10 mins of benzalkonium chloride challenge measured after 1 to 7 hrs of induction of dermatitis; assay type: functional, organism-based
Mus musculus [10] = assay: Antiinflammatory activity in BALB/c mouse assessed as inhibition of benzalkonium chloride-induced ear edema at 0.1 to 1 mg/ear administered topically after 10 mins of benzalkonium chloride challenge measured after 1 hr of induction of dermatitis; assay type: functional, organism-based
Mus musculus [11] = assay: Antiinflammatory activity in BALB/c mouse assessed as inhibition of benzalkonium chloride-induced ear edema at 0.1 mg/ear administered topically after 10 mins of benzalkonium chloride challenge measured after 7 hrs of induction of dermatitis; assay type: functional

Question: What does the source list for `CC(C)C(=O)c1cn(CC(=O)COc2ccc(Oc3ccccc3)cc2)c2ccc(C(=O)O)cc12`?
Answer: inhibition (INH) (Mus musculus [1]): 90%; inhibition [2]: inactive; inhibition (Mus musculus [3]): inactive; inhibition (Mus musculus [4]): Active; IC50 [5]: 15 nM; inhibition (Mus musculus [6]): Active; logP at 5000 µM [7]: 3.5; inhibition [8]: inactive; inhibition (Mus musculus [9]): Dose-dependent effect; inhibition (Mus musculus [10]): Active; inhibition (INH) (Mus musculus [11]): 84%
